PubChem BioAssay AID1919000 (Molecular Pharmacology Branch, DTP, NCI, 2023)

Test system: 653999-131-R-J2-PDC complex spheroids, growth % test/control
Test: Anticancer human tumor 653999-131-R-J2-PDC patient-derived lung adenocarcinoma cell line growth inhibition [AhR]
Conditions: for IC50: curve of first compound; for viability, T/C: stronger effect = lower value
Method in brief: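 Agents were dosed in half-log steps down from roughly clinical Cmax, or from 10 microM where Cmax was unknown, alone and with AhR antagonists. Read-out: percent test/control growth of tumor spheroids containing HUVEC and MSC stromal cells.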

[1] = second compound 0.1 µM, first compound 0.0316 µM
[2] = second compound 0.1 µM, first compound 0.1 µM
[3] = second compound 0.1 µM, first compound 0.316 µM
[4] = second compound 0.1 µM, first compound 1 µM
[5] = second compound 0.1 µM, first compound 3.16 µM
[6] = second compound 0.1 µM, first compound 10 µM
[7] = second compound 0.316 µM, first compound 0.0316 µM
[8] = second compound 0.316 µM, first compound 0.1 µM
[9] = second compound 0.316 µM, first compound 0.316 µM
[10] = second compound 0.316 µM, first compound 1 µM
[11] = second compound 0.316 µM, first compound 3.16 µM
[12] = second compound 0.316 µM, first compound 10 µM
[13] = second compound 1 µM, first compound 0.0316 µM
[14] = second compound 1 µM, first compound 0.1 µM
[15] = second compound 1 µM, first compound 0.316 µM
[16] = second compound 1 µM, first compound 1 µM
[17] = second compound 1 µM, first compound 3.16 µM
[18] = second compound 1 µM, first compound 10 µM
[19] = second compound 3.16 µM, first compound 0.0316 µM
[20] = second compound 3.16 µM, first compound 0.1 µM
[21] = second compound 3.16 µM, first compound 0.316 µM
[22] = second compound 3.16 µM, first compound 1 µM
[23] = second compound 3.16 µM, first compound 3.16 µM
[24] = second compound 3.16 µM, first compound 10 µM
[25] = second compound 10 µM, first compound 0.0316 µM
[26] = second compound 10 µM, first compound 0.1 µM
[27] = second compound 10 µM, first compound 0.316 µM
[28] = second compound 10 µM, first compound 1 µM
[29] = second compound 10 µM, first compound 3.16 µM
[30] = second compound 10 µM, first compound 10 µM
[31] = second compound 0.1 µM, first compound 0.00316 µM
[32] = second compound 0.1 µM, first compound 0.01 µM
[33] = second compound 0.316 µM, first compound 0.00316 µM
[34] = second compound 0.316 µM, first compound 0.01 µM
[35] = second compound 1 µM, first compound 0.00316 µM
[36] = second compound 1 µM, first compound 0.01 µM
[37] = second compound 3.16 µM, first compound 0.00316 µM
[38] = second compound 3.16 µM, first compound 0.01 µM
[39] = second compound 10 µM, first compound 0.00316 µM
[40] = second compound 10 µM, first compound 0.01 µM
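Further: spheroids exposed to agents for seven days.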
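Wherever viability, T/C is given: 100% = DMSO vehicle control viability.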

| Structure (SMILES) | IC50 (second compound 0.1 µM) | IC50 (second compound 0.316 µM) | IC50 (second compound 1 µM) | IC50 (second compound 3.16 µM) | IC50 (second compound 10 µM) | viability, T/C [1] | viability, T/C [2] | viability, T/C [3] | viability, T/C [4] | viability, T/C [7] | viability, T/C [8] | viability, T/C [9] | viability, T/C [10] | viability, T/C [13] | viability, T/C [14] | viability, T/C [15] | viability, T/C [19] | viability, T/C [20] | viability, T/C [25] | viability, T/C [26] | also measured |
| --- | --- | --- | --- | --- | --- | --- | --- | --- | --- | --- | --- | --- | --- | --- | --- | --- | --- | --- | --- | --- | --- |
| CC(C)c1c(-c2ccccc2)nc2c(C#N)c[nH]n2c1=O + CC(CO)NC(=O)c1cc(-c2ccc(Cl)cc2)nn(-c2cnn(C)c2)c1=O | > 10 µM | > 10 µM | > 10 µM | > 10 µM | > 10 µM | 104% | 105% | 99.4% | 94.2% | 102% | 105% | 93.3% | 101% | 104% | 106% | 114% | 105% | 108% | 104% | 116% | viability, T/C [5]: 93.3%; viability, T/C [6]: 90.9%; viability, T/C [11]: 93.8%; viability, T/C [12]: 99%; viability, T/C [16]: 98%; viability, T/C [17]: 97.9%; viability, T/C [18]: 95.4%; viability, T/C [21]: 123%; viability, T/C [22]: 93.6%; viability, T/C [23]: 92.2%; viability, T/C [24]: 91.9%; viability, T/C [27]: 100%; viability, T/C [28]: 102%; viability, T/C [29]: 95.4%; viability, T/C [30]: 96.7% |
| COc1cc(C2c3cc4c(cc3C(OC3OC5COC(C)OC5C(O)C3O)C3COC(=O)C23)OCO4)cc(OC)c1O (stereo not given) + Cc1ccccc1N=Nc1ccc(NC(=O)c2ccnn2C)c(C)c1 | 0.846 µM | 0.568 µM | 0.513 µM | 0.965 µM | 0.962 µM | 86% | 76% | 58.6% | 48.8% | 86.2% | 68.6% | 54% | 47.3% | 90.2% | 72.6% | 53.7% | 80% | 77.4% | 72.6% | 68.7% | viability, T/C [5]: 38.1%; viability, T/C [6]: 28.3%; viability, T/C [11]: 34%; viability, T/C [12]: 29.1%; viability, T/C [16]: 42.8%; viability, T/C [17]: 37.7%; viability, T/C [18]: 30.2%; viability, T/C [21]: 62%; viability, T/C [22]: 46.1%; viability, T/C [23]: 42.5%; viability, T/C [24]: 27.7%; viability, T/C [27]: 58%; viability, T/C [28]: 49%; viability, T/C [29]: 41.4%; viability, T/C [30]: 31.8% |
| Nc1ncn(C2CC(O)C(CO)O2)c(=O)n1 (stereo not given) + Cc1ccccc1N=Nc1ccc(NC(=O)c2ccnn2C)c(C)c1 | > 1 µM | > 1 µM | > 1 µM | > 1 µM | > 1 µM | 95.5% | 87.5% | 79.9% | 76.9% | 80.8% | 83.2% | 81.1% | 71.7% | 88% | 93.3% | 78.9% | 88% | 77.8% | 82.7% | 78.6% | viability, T/C [31]: 97.5%; viability, T/C [32]: 99.3%; viability, T/C [33]: 100%; viability, T/C [34]: 93.8%; viability, T/C [35]: 87.5%; viability, T/C [36]: 94.6%; viability, T/C [16]: 78.1%; viability, T/C [37]: 88.6%; viability, T/C [38]: 92.9%; viability, T/C [21]: 84.7%; viability, T/C [22]: 72.7%; viability, T/C [39]: 84.3%; viability, T/C [40]: 78.7%; viability, T/C [27]: 77.5%; viability, T/C [28]: 70.8% |

Stronger by IC50 (second compound 0.1 µM), values ahead:

| IC50 (second compound 0.1 µM) | IC50 (second compound 0.316 µM) | IC50 (second compound 1 µM) | IC50 (second compound 3.16 µM) | IC50 (second compound 10 µM) | Structure (SMILES) | viability, T/C [1] | viability, T/C [2] | viability, T/C [3] | viability, T/C [4] | viability, T/C [7] | viability, T/C [8] | viability, T/C [9] | viability, T/C [10] | viability, T/C [13] | viability, T/C [14] | viability, T/C [15] | viability, T/C [19] | viability, T/C [20] | viability, T/C [25] | viability, T/C [26] | also measured |
| --- | --- | --- | --- | --- | --- | --- | --- | --- | --- | --- | --- | --- | --- | --- | --- | --- | --- | --- | --- | --- | --- |
| 0.0775 µM | 0.0796 µM | 0.0682 µM | 0.0849 µM | > 0.1 µM | CC[C@@]1(O)C(=O)OCc2c1cc1n(c2=O)Cc2cc3c(CN(C)C)c(O)ccc3nc2-1 + Cc1ccccc1N=Nc1ccc(NC(=O)c2ccnn2C)c(C)c1 | 63.7% | 45.9% | – | – | 63.4% | 46% | – | – | 61.6% | 44.2% | – | 59% | 48.2% | 65.8% | 57.8% | viability, T/C (second compound 0.1 µM, first compound 0.000316 µM): 111%; viability, T/C (second compound 0.1 µM, first compound 0.001 µM): 104%; viability, T/C [31]: 93.1%; viability, T/C [32]: 87.7%; viability, T/C (second compound 0.316 µM, first compound 0.000316 µM): 95%; viability, T/C (second compound 0.316 µM, first compound 0.001 µM): 108%; viability, T/C [33]: 120%; viability, T/C [34]: 88.3%; viability, T/C (second compound 1 µM, first compound 0.000316 µM): 101%; viability, T/C (second compound 1 µM, first compound 0.001 µM): 122%; viability, T/C [35]: 109%; viability, T/C [36]: 94.5%; viability, T/C (second compound 3.16 µM, first compound 0.000316 µM): 103%; viability, T/C (second compound 3.16 µM, first compound 0.001 µM): 110%; viability, T/C [37]: 109%; viability, T/C [38]: 91.7%; viability, T/C (second compound 10 µM, first compound 0.000316 µM): 117%; viability, T/C (second compound 10 µM, first compound 0.001 µM): 106%; viability, T/C [39]: 101%; viability, T/C [40]: 82.3% |
| < 0.0316 µM | < 0.0316 µM | < 0.0316 µM | 0.0959 µM | 0.129 µM | COc1cccc2c1C(=O)c1c(O)c3c(c(O)c1C2=O)CC(O)(C(=O)CO)CC3OC1CC(N)C(O)C(C)O1 (stereo not given) + Cc1ccccc1N=Nc1ccc(NC(=O)c2ccnn2C)c(C)c1 | 50.3% | 44.6% | 25.8% | 9.24% | 50.5% | 40.8% | 29.3% | 9.21% | 48.8% | 44% | 28.6% | 55.6% | 47% | 60.5% | 51% | viability, T/C [5]: 5.33%; viability, T/C [6]: 16.6%; viability, T/C [11]: 4.48%; viability, T/C [12]: 17.2%; viability, T/C [16]: 10.4%; viability, T/C [17]: 8.05%; viability, T/C [18]: 19.6%; viability, T/C [21]: 32.6%; viability, T/C [22]: 12.3%; viability, T/C [23]: 11.6%; viability, T/C [24]: 19.2%; viability, T/C [27]: 37.2%; viability, T/C [28]: 16.3%; viability, T/C [29]: 8.54%; viability, T/C [30]: 22.5% |
| 0.532 µM | 0.371 µM | 0.94 µM | 0.454 µM | 2.96 µM | Nc1ccn(C2OC(CO)C(O)C2(F)F)c(=O)n1 (stereo not given) + Cc1ccccc1N=Nc1ccc(NC(=O)c2ccnn2C)c(C)c1 | 64.2% | 65% | 49.3% | 44.9% | 70.6% | 60.9% | 52.8% | 39.8% | 69.2% | 66.4% | 60.5% | 72.5% | 62.4% | 66.8% | 65.5% | viability, T/C [5]: 42.9%; viability, T/C [6]: 34.2%; viability, T/C [11]: 43.5%; viability, T/C [12]: 36.8%; viability, T/C [16]: 44.4%; viability, T/C [17]: 43.5%; viability, T/C [18]: 36%; viability, T/C [21]: 51.5%; viability, T/C [22]: 44.9%; viability, T/C [23]: 42.1%; viability, T/C [24]: 38.7%; viability, T/C [27]: 65.2%; viability, T/C [28]: 50.3%; viability, T/C [29]: 46.1%; viability, T/C [30]: 48.5% |
